# Source: a melting point compilation (Tetko et al.; mined from patent text by program, amines drawn as free bases though some values may be those of a salt)
row,Compound,melting point
1,O=CN1CCN(c2ccnc(Oc3ccccc3)n2)CC1,149 to 151 °C
2,COC(=O)c1nc(Cl)c(F)c(N)c1/C=C/[Si](C)(C)C,103 to 105 °C
3,COc1ncccc1-c1ccc(OC2SCC(O)C(O)C2O)c(Cl)n1 (stereo not drawn),102 °C
4,O=C(O)C1=Cc2cc(C(F)F)ccc2OC1C(F)(F)F (stereo not drawn),135 to 136 °C
5,CN(C)c1ccc(C(=CC(C=C(c2ccc(N(C)C)cc2)c2ccc(N(C)C)cc2)c2ccc(N(C)C)cc2)c2ccc(N(C)C)cc2)cc1,215 to 220 °C
6,NS(=O)(=O)c1cc(C(=O)O)cc([N+](=O)[O-])c1Oc1cccc(C(F)(F)F)c1,210 °C
7,Cc1cc(-c2csc(N)n2)on1,208 to 210 °C
8,COC(=O)CCn1c(=O)n2n(c1=O)C(C(=O)OC)C=CC2C(=O)OC (stereo not drawn),139 to 141 °C
9,Cc1ccc(N)c(C)c1CO,85 °C
10,COC(=O)C1=C(N)CC2CC[C@H]1N2C,95 to 98 °C
11,C=CCNC(=O)c1ccc(-n2c(C)ccc2C)cc1Br,136 to 138 °C
12,C=CCn1c(=Nc2ccccc2)sc2ncccc2c1=O,94 to 95 °C
13,Cc1cc(Br)c(NC(=O)CBr)c(Br)n1,197 to 199 °C
14,Cn1ccc(=O)c2ccc(F)cc21,146 to 149 °C
15,CCCc1c(Cl)oc2ccc(I)cc2c1=O,103 to 105 °C
16,CSc1sc(C(=O)N2CCCC2)c2c1-c1oncc1C(C)(C)C2,114 to 116 °C
17,COC(=O)c1cc(I)cnc1Cl,49 to 50 °C
18,N#CC1=C(C2CCCN2)Nc2n[nH]cc2C1c1cccc(C#N)c1Br (stereo not drawn),> 240 °C
19,COCC(C)Oc1cc(-n2c(=O)cc(C(F)(F)F)n(C)c2=O)c(F)cc1Cl (stereo not drawn),80 to 82 °C

row,Compound,melting point
1,Cc1cc(COc2ccc3nc(NC(=O)NCCN4CCOCC4)sc3c2)n(C)n1,160 °C
2,OCc1sc(Cl)nc1C(F)(F)F,39 to 45 °C
3,COc1cc(OC)nc(Oc2cccc(C(F)(F)F)c2C(=O)O)n1,151 to 153 °C
4,C=CCNC(=NC#N)NCC=C,66.5 to 67 °C
5,CCCOc1ccccc1OS(=O)(=O)NC(=O)Nc1nc(OC)cc(OC)n1,108 to 109 °C
6,COc1cc2c(c(Cl)c1Cl)C(=O)C(C)(CC1CCCC1)C2 (stereo not drawn),75 to 77 °C
7,O=C(OCC1CC1)c1ncn2c1[C@@H]1CCN1C(=O)c1cc(F)ccc1-2,171 to 172 °C
8,COCc1nc2nccnc2c(=O)n1C,130 to 132 °C
9,COc1cc(C=C2NC(=O)N(C)C2=O)ccc1O,227 to 228 °C
10,Cn1cc(C(=O)NCc2ccc(Cl)cc2)c(=O)c2cc(CN3CCOCC3)cc(I)c21,156 to 158 °C
11,O=C(O)CCc1conc1-c1ccc(F)c(Cl)c1,140 to 141 °C
12,CN(C(=O)Oc1ccc(Cl)c(C(C)(C)C)c1)c1cccc(Cl)c1,65 to 67 °C
13,CCCCCCCCCCCCCCCCCNC(=O)OCCOCCOC(=O)NCc1ccccn1,91 to 92 °C
14,C1=Cn2ccnc2Cc2ccccc21,85.5 °C
15,C=C(C)c1ccc(O)cc1,167 to 168 °C
16,O=c1[nH]c2cc(Cl)ccc2n1CCCN1CCC(O)(c2ccc(Cl)cc2)CC1,191 °C
17,CCC(C)(C)C1CC=C(C(=O)O)CC1 (stereo not drawn),123 to 125 °C
18,CCOC(=O)C1=CNC2=C(C(=O)OCC)CCC(C)N2C1=O (stereo not drawn),138 to 140 °C
19,CS(=O)(=O)Nc1ccc(C=CC(=O)O)cc1,218 °C

# Results, then the compound that gave them:
row,melting point,Compound
1,168 to 169 °C,CN(C(CCn1c(=O)cc(C(F)(F)F)[nH]c1=O)C(=O)NO)S(=O)(=O)c1ccc(Oc2cccc(F)c2)cc1 (stereo not drawn)
2,58 to 60 °C,CC(=O)c1cc(Cl)cc(Oc2ncccc2C(=O)NCc2ccc(C(C)(C)O)cc2Cl)c1
3,216 to 218 °C,Clc1ccc(-c2ccc3nncn3n2)cc1
4,192 to 194 °C,Cc1oc(-c2ccccc2)nc1CCOc1ccc(C(=O)O)c(O)c1
5,161 to 162 °C,COC=C1C(=O)N(OCc2ccccc2)C(=O)c2ccccc21
6,76 °C,CC(C)(C)OC(=O)N1CCN(C(=O)c2cccs2)CC1
7,118 to 119 °C,CCOC(=O)c1ccc(-c2cccc3cncn23)cc1
8,174 to 180 °C,O=C(O)C(c1ccc(F)cc1)N1C(=O)c2ccccc2C1=O (stereo not drawn)
9,136 to 138 °C,Cc1nc(-c2ccc(C(F)(F)F)cc2)oc1COc1ccc(OCC(=O)O)cc1
10,191 to 192 °C,COc1ccc2c(c1)c(-c1ccccc1)cc(=O)n2Cc1c(Cl)cncc1Cl
11,87 to 89 °C,CN(CC(=O)c1ccc(N2CCOCC2)cc1)C(=O)OC(C)(C)C
12,191 to 192 °C,CS(=O)CC(=O)Nc1c(C(=O)c2ccccc2)[nH]c2cc(Cl)ccc12 (stereo not drawn)
13,90 to 93 °C,CC(C)(C)C(O)c1ccc(C2(c3ccccc3)OCCO2)cc1 (stereo not drawn)
14,113 to 116 °C,NCc1c(Nc2ccccc2)cccc1Oc1ccccc1
15,197 to 199 °C,O=C(O)COc1cccc2c1CCc1sc(S(=O)(=O)C(c3ccc(Cl)cc3)c3ccc(Cl)cc3)nc1-2
16,134 to 136 °C,CCCCC1(CCCC)NC(c2nc(-c3ccccc3)cs2)Cc2c1[nH]c1ccccc21 (stereo not drawn)
17,37 to 38 °C,Brc1ccc(OCc2ccccc2)cc1OCc1ccccc1
18,118 to 120 °C,NC(=O)CCCCCOc1cc(-c2ccccc2)cc(-c2ccccc2)n1

row,melting point,Compound
1,105 to 106 °C,COc1ccc(C2OCc3ccccc3O2)cc1O (stereo not drawn)
2,118 to 120 °C,COC(=O)CCS(=O)(=O)c1ccc(C=C(C)c2ccc3c(c2)C(C)(C)CCC3(C)C)cc1
3,60 °C,COC(=O)Cc1ccc(OCCNC(=O)C2Cc3ccccc3N2S(=O)(=O)c2ccc(-c3cccc(C(F)(F)F)c3)c(C)c2)cc1 (stereo not drawn)
4,177 to 179 °C,CCCCc1nc2c(N)nc3ccc(OCc4ccccc4)cc3c2n1CCCCNC(=O)N1CCOCC1
5,94 to 96 °C,CC1(C)CON(Cc2ccc(NC(=O)c3ncccc3C(=O)O)cc2Cl)C1=O
6,161 to 170 °C,O=C(O)c1cc(=O)c(OCc2ccccc2)c(-c2ccccc2)o1
7,141 to 142 °C,NC(=O)c1ccc(OCCNCC(O)c2ccccc2)cc1O (stereo not drawn)
8,159 to 160 °C,O=c1ccoc(C(O)c2ccc3ccccc3c2)c1OCc1ccccc1 (stereo not drawn)
9,216 to 217 °C,CC(=O)Nc1nc(-c2ccco2)c(C(=O)c2ccccn2)s1
10,73 to 75 °C,CC(C)n1c(/C=C/[C@H]2C[C@H](CC(=O)OC(C)(C)C)OC(C)(C)O2)c(-c2ccc(F)cc2)c(-c2ccccc2)c1C(N)=O
11,> 250 °C,O=C(Nc1nccs1)c1ccc(CN2C(=O)C3(COc4cc5c(cc43)CCO5)c3ccccc32)cc1 (stereo not drawn)
12,205 to 206 °C,CC(=O)C1=C(O)C(=C(C)Nc2ccc(Cl)cc2)C(=O)OC1=O
13,106 to 107 °C,COc1ccc(C(=O)C2=C(c3ccccc3)CCc3ccccc32)cc1
14,207 to 210 °C,CN(Cc1ccc(NC(=O)C2=Cc3cc(-c4ccc(OCc5ccc(Cl)s5)cc4)ccc3S(=O)(=O)CC2)cc1)C1CCOCC1
15,200 to 202 °C,CC(C)c1[nH]n(-c2c(Cl)cc(Cl)cc2Cl)c2nc(Cc3ccc(NC(=O)OCCCN(C)C)cc3)nc(=O)c1-2
16,170 °C,Cc1ccc(CN2CCN([C@@H](CNS(=O)(=O)c3ccc(OCc4cc(C)nc5ccccc45)cc3)C(=O)NO)CC2)cc1
17,136 to 138 °C,CCOC(=O)Cn1c2c(c3c(Cl)c(Cl)ccc31)CCN(C(=O)OC(C)(C)C)CC2
